{
  "source": "patent US20070244196A1",
  "about": "“Prostaglandin F2alpha derivative-containing product” (SANTEN PHARMACEUTICAL CO., LTD., priority 2004, published 2007)",
  "experiment": "Storage stability test (eye drop in contact with resin containers, 40° C. for 7 days, HPLC)",
  "format": "physicochemical",
  "conditions": "eye drop (present compound 0.0005%, polysorbate 80 0.05%, pH about 6), containers of propylene/ethylene random copolymer (98.7/1.3, 97.4/2.6, 96.4/3.6) compared with propylene homopolymer container",
  "experimental": "Hereinafter, the present invention will be described in detail through carrying out a storage stability test (40° C. for 7 days). However, such descriptions are disclosed for the purpose of understanding the present invention better and are not meant to limit the scope of the present invention.\nAs a typical example of a prostaglandin F2α derivative having at least a fluorine atom in its molecule, 16-phenoxy-15-deoxy-15,15-difluoro-17,18,19,20-tetranor-prostaglandin F2α isopropyl ester (hereinafter, referred to as the “present compound” ) was used. The present compound (0.0005%) and polysorbate 80 (0.05%) were dissolved in purified water, and then, commonly used additives such as disodium edetate (q.s.), concentrated glycerin (q.s.), benzalkonium chloride (q.s.) and the like were added thereto to obtain an eye drop with an osmotic pressure of about 1 and a pH of about 6. […]\nThe eye drop (110 ml) obtained in the section of “(1) Preparation of Eye Drop” was placed in a glass container and the glass container was heated to 40° C. […] The amount of the present compound contained in the glass container was measured by high performance liquid chromatography before and after the storage, and the content of the present compound (average) was calculated taking the content of the present compound at the time of initiation of storage as 100%.",
  "data": [
    {"smiles": "CC(C)OC(=O)CCC/C=C\\C[C@@H]1[C@@H](/C=C/C(F)(F)COc2ccccc2)[C@H](O)C[C@@H]1O", "note": "[present compound, 16-phenoxy-15-deoxy-15,15-difluoro-17,18,19,20-tetranor-prostaglandin F2α isopropyl ester]", "values": [
      {"measurement": "content of the present compound (average), content at the time of initiation of storage taken as 100%", "result": "higher"}
    ]}
  ]
}
